According to PubChem BioAssay AID248 (DTP/NCI, 2004):
Several values for one entry are separate records, joined by “and”; a condition that tells them apart may be missing. Equal values may be shown once. Toxic doses and inconclusive results are not listed.

Test system: L1210 leukemia ip in BDF1 mice, survival T/C
Assay: NCI In Vivo Anticancer Drug Screen. Data for tumor model L1210 Leukemia (intraperitoneal) in B6D2F1 (BDF1) mice
Conditions: endpoint: mean survival time, higher = longer survival
Procedure, shortened: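 Read-out is survival time, reported as the treated-group measurement over the vehicle-control measurement.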

[1] = dose: 50.0 mg/kg/injection, schedule: Q01DX001 (ip), vehicle: saline
[2] = dose: 100.0 mg/kg/injection, schedule: Q01DX001 (ip), vehicle: saline
[3] = dose: 200.0 mg/kg/injection, schedule: Q01DX001 (ip), vehicle: saline
[4] = dose: 25.0 mg/kg/injection, schedule: Q01DX009 (ip), vehicle: saline with Tween-80
[5] = dose: 25.0 mg/kg/injection, schedule: Q01DX009 (ip), vehicle: saline
[6] = dose: 50.0 mg/kg/injection, schedule: Q01DX009 (ip), vehicle: saline with Tween-80
[7] = dose: 50.0 mg/kg/injection, schedule: Q01DX009 (ip), vehicle: saline
[8] = dose: 100.0 mg/kg/injection, schedule: Q01DX009 (ip), vehicle: Klucel (hydroxypropylcellulose) (HPC)
[9] = dose: 100.0 mg/kg/injection, schedule: Q04DX003 (ip), vehicle: Klucel (hydroxypropylcellulose) (HPC)
[10] = dose: 200.0 mg/kg/injection, schedule: Q01DX009 (ip), vehicle: Klucel (hydroxypropylcellulose) (HPC)
[11] = dose: 200.0 mg/kg/injection, schedule: Q04DX003 (ip), vehicle: Klucel (hydroxypropylcellulose) (HPC)
[12] = dose: 400.0 mg/kg/injection, schedule: Q01DX009 (ip), vehicle: Klucel (hydroxypropylcellulose) (HPC)
[13] = dose: 400.0 mg/kg/injection, schedule: Q04DX003 (ip), vehicle: Klucel (hydroxypropylcellulose) (HPC)

In the case of `NC(N)=NCCCC(N)C(=O)NCCCCCCNC(=O)CCC(=O)NCCCCCCNC(=O)C(N)CCCN=C(N)N` (stereo unspecified), the T/C (dose: 62.5 mg/kg/injection, schedule: Q01DX010 (ip), vehicle: saline) is reported as 94 % of control, the T/C (dose: 125.0 mg/kg/injection, schedule: Q01DX010 (ip), vehicle: saline) is reported as 98 % of control and the T/C (dose: 250.0 mg/kg/injection, schedule: Q01DX010 (ip), vehicle: saline) is reported as 100 % of control. The T/C (dose: 500.0 mg/kg/injection, schedule: Q01DX010 (ip), vehicle: saline) was 113 % of control.

`NC(Cc1c[nH]c2c(N(CCCl)CCCl)cccc12)C(=O)O` (stereo unspecified) was tested, and the T/C (dose: 0.88 mg/kg/injection, schedule: Q01DX Z (ip), vehicle: methylcellulose (MC)) was 101 % of control, the T/C (dose: 1.3 mg/kg/injection, schedule: Q01DX Z (ip), vehicle: methylcellulose (MC)) was 95 % of control and the T/C (dose: 2.0 mg/kg/injection, schedule: Q01DX Z (ip), vehicle: methylcellulose (MC)) was 95 % of control. The T/C (dose: 3.0 mg/kg/injection, schedule: Q01DX Z (ip), vehicle: methylcellulose (MC)) was 101 % of control, the T/C (dose: 5.0 mg/kg/injection, schedule: Q01DX Z (ip), vehicle: methylcellulose (MC)) was 118 % of control and the T/C (dose: 40.0 mg/kg/injection, schedule: Q01DX Z (ip), vehicle: methylcellulose (MC)) was 118 % of control.

In the case of `Cc1cccc(NCC(=O)NN)c1C`, the T/C (dose: 50.0 mg/kg/injection, schedule: Q01DX009 (ip), vehicle: carboxymethylcellulose (CMC)) is reported as 102 % of control and 104 % of control, the T/C (dose: 50.0 mg/kg/injection, schedule: Q04DX002 (ip), vehicle: carboxymethylcellulose (CMC)) is reported as 96 % of control and 101 % of control and the T/C (dose: 50.0 mg/kg/injection, schedule: Q04DX003 (ip), vehicle: carboxymethylcellulose (CMC)) is reported as 102 % of control. The T/C (dose: 100.0 mg/kg/injection, schedule: Q01DX009 (ip), vehicle: carboxymethylcellulose (CMC)) was 104 % of control and 106 % of control, the T/C (dose: 100.0 mg/kg/injection, schedule: Q04DX002 (ip), vehicle: carboxymethylcellulose (CMC)) was 101 % of control and 103 % of control and the T/C (dose: 100.0 mg/kg/injection, schedule: Q04DX003 (ip), vehicle: carboxymethylcellulose (CMC)) was 102 % of control. The T/C (dose: 200.0 mg/kg/injection, schedule: Q01DX009 (ip), vehicle: carboxymethylcellulose (CMC)) was 97 % of control, the T/C (dose: 200.0 mg/kg/injection, schedule: Q04DX002 (ip), vehicle: Klucel (hydroxypropylcellulose) (HPC)) was 92 % of control and the T/C (dose: 200.0 mg/kg/injection, schedule: Q04DX002 (ip), vehicle: carboxymethylcellulose (CMC)) was 104 % of control and 107 % of control. The T/C (dose: 200.0 mg/kg/injection, schedule: Q04DX003 (ip), vehicle: carboxymethylcellulose (CMC)) was 90 % of control and the T/C (dose: 400.0 mg/kg/injection, schedule: Q04DX002 (ip), vehicle: Klucel (hydroxypropylcellulose) (HPC)) was 113 % of control.

For `O=C(/C(=C\c1ccccc1)N1CCOCC1)c1ccc(Cl)cc1`, the T/C (dose: 100.0 mg/kg/injection, schedule: Q04DX003 (ip), vehicle: saline with Tween-80) was 92 % of control.

In the case of `O=C1c2cc(Br)ccc2-c2ccc(Br)cc21`, the T/C [1] is reported as 90 % of control, the T/C [2] is reported as 100 % of control and the T/C [3] is reported as 90 % of control.

With `CC(C)=CC(=O)OC1C2C(C)C(=O)OC2C(O)C(C)C2C=CC(=O)C21C` (stereo unspecified) the T/C (dose: 6.25 mg/kg/injection, schedule: Q01DX009 (ip), vehicle: saline with Tween-80) was 95 % of control, the T/C (dose: 12.5 mg/kg/injection, schedule: Q01DX009 (ip), vehicle: saline with Tween-80) was 97 % of control and the T/C (dose: 25.0 mg/kg/injection, schedule: Q01DX009 (ip), vehicle: Klucel (hydroxypropylcellulose) (HPC)) was 97 % of control. For the same compound, the T/C [4] was 103 % of control, the T/C [5] was 93 % of control and the T/C (dose: 50.0 mg/kg/injection, schedule: Q01DX009 (ip), vehicle: Klucel (hydroxypropylcellulose) (HPC)) was 94 % of control. The T/C [6] was 103 % of control and the T/C [7] was 100 % of control.

With `CCCCNC(=O)Nc1ccccc1OCC` the T/C [8] was 93 % of control, the T/C [9] was 94 % of control and the T/C [10] was 92 % of control. For the same compound, the T/C [11] was 104 % of control, the T/C [12] was 97 % of control and the T/C [13] was 94 % of control.

With `CCCCCN(CCCCC)CCCNc1c2c(nc3ccc(OC)cc13)CCCC2` the T/C (dose: 2.5 mg/kg/injection, schedule: Q01DX009 (ip), vehicle: saline) was 100 % of control, the T/C (dose: 5.0 mg/kg/injection, schedule: Q01DX001 (ip), vehicle: saline) was 98 % of control and the T/C (dose: 5.0 mg/kg/injection, schedule: Q01DX009 (ip), vehicle: saline) was 104 % of control. The T/C (dose: 9.0 mg/kg/injection, schedule: Q01DX001 (ip), vehicle: saline) was 94 % of control and 102 % of control, the T/C (dose: 10.0 mg/kg/injection, schedule: Q01DX001 (ip), vehicle: saline) was 96 % of control and the T/C (dose: 10.0 mg/kg/injection, schedule: Q01DX009 (ip), vehicle: saline) was 98 % of control. The T/C (dose: 13.0 mg/kg/injection, schedule: Q01DX001 (ip), vehicle: saline) was 94 % of control, the T/C (dose: 14.0 mg/kg/injection, schedule: Q01DX001 (ip), vehicle: saline) was 104 % of control and the T/C (dose: 20.0 mg/kg/injection, schedule: Q01DX001 (ip), vehicle: saline) was 93 % of control and 102 % of control (2×). The T/C (dose: 20.0 mg/kg/injection, schedule: Q01DX009 (ip), vehicle: saline) was 100 % of control and the T/C (dose: 30.0 mg/kg/injection, schedule: Q01DX001 (ip), vehicle: saline) was 98 % of control.

`O=C(NCCCl)NC1C2CC3CC(C2)CC1C3` (stereo unspecified) was tested, and the T/C (dose: 75.0 mg/kg/injection, schedule: Q01DX001 (ip), vehicle: other) was 93 % of control, the T/C (dose: 150.0 mg/kg/injection, schedule: Q01DX001 (ip), vehicle: other) was 89 % of control and the T/C (dose: 300.0 mg/kg/injection, schedule: Q01DX001 (ip), vehicle: other) was 89 % of control.

With `COC(=O)c1ccc(Cl)c(Cl)c1` the T/C [4] was 110 % of control, the T/C [6] was 104 % of control and the T/C (dose: 100.0 mg/kg/injection, schedule: Q01DX009 (ip), vehicle: saline with Tween-80) was 107 % of control. The T/C (dose: 200.0 mg/kg/injection, schedule: Q01DX009 (ip), vehicle: saline with Tween-80) was 100 % of control and the T/C (dose: 400.0 mg/kg/injection, schedule: Q01DX009 (ip), vehicle: saline with Tween-80) was 102 % of control.

In the case of `CCCCCCCc1ccc2cccc3c2c1C(=O)c1ccccc1-3`, the T/C [9] is reported as 92 % of control, the T/C [11] is reported as 92 % of control and the T/C [13] is reported as 94 % of control.

`CCNC(c1ccccc1)C(O)c1ccccc1` (stereo unspecified) was tested, and the T/C (dose: 50.0 mg/kg/injection, schedule: Q04DX002 (ip), vehicle: Klucel (hydroxypropylcellulose) (HPC)) was 94 % of control, the T/C [8] was 104 % of control and the T/C (dose: 100.0 mg/kg/injection, schedule: Q04DX002 (ip), vehicle: Klucel (hydroxypropylcellulose) (HPC)) was 105 % of control. For the same compound, the T/C [10] was 102 % of control.

For `COc1cccc(CCN)c1`, the T/C [1] was 116 % of control, the T/C [2] was 110 % of control and the T/C [3] was 118 % of control.

In the case of `O=C(Nc1ccc(C(=O)Nc2cccc(C3=NCCN3)c2)cc1)Nc1ccc(C2=NCCN2)cc1`, the T/C (dose: 15.0 mg/kg/injection, schedule: Q01DX Z (ip), vehicle: saline) is reported as 202 % of control, the T/C (dose: 30.0 mg/kg/injection, schedule: Q01DX Z (ip), vehicle: saline) is reported as 183 % of control and the T/C (dose: 60.0 mg/kg/injection, schedule: Q01DX Z (ip), vehicle: saline) is reported as 122 % of control. For the same compound, the T/C (dose: 120.0 mg/kg/injection, schedule: Q01DX Z (ip), vehicle: saline) was 100 % of control.

With `CN1CCC(=C2c3ccccc3C=Cc3ccccc32)CC1` the T/C (dose: 6.25 mg/kg/injection, schedule: Q01DX009 (ip), vehicle: saline) was 95 % of control, the T/C (dose: 12.5 mg/kg/injection, schedule: Q01DX009 (ip), vehicle: saline) was 90 % of control and the T/C [5] was 95 % of control. For the same compound, the T/C (dose: 25.0 mg/kg/injection, schedule: Q04DX003 (ip), vehicle: saline) was 96 % of control, the T/C [7] was 98 % of control and the T/C (dose: 100.0 mg/kg/injection, schedule: Q04DX003 (ip), vehicle: saline) was 102 % of control.

For `O=C(NC1CCCCC1)N(C1CCCCC1)C1CCCCC1`, the T/C [8] was 90 % of control, the T/C [10] was 103 % of control and the T/C [12] was 92 % of control.
